Earlier results in US11096902B1, “Transdermal film formulations and methods of use” (King Abdulaziz University, priority 2021, dated 2021).

Details: oral, with food

**Q.** Which “reduction of systemic availability by concomitant intake of food” value does the source give for `CC(C)c1c(C(=O)Nc2ccccc2)c(-c2ccccc2)c(-c2ccc(F)cc2)n1CC[C@@H](O)C[C@@H](O)CC(=O)[O-].CC(C)c1c(C(=O)Nc2ccccc2)c(-c2ccccc2)c(-c2ccc(F)cc2)n1CC[C@@H](O)C[C@@H](O)CC(=O)[O-].[Ca+2]` [ATC, Atorvastatin calcium] here?
**A.** 25%
